Measurements: ChEMBL document CHEMBL1157539, “Thousands of chemical starting points for antimalarial lead identification” (Nature, 2010)

These molecules were tested on Plasmodium falciparum (assay: GSK_TCMDC: Inhibition of Plasmodium falciparum 3D7 in whole erythrocytes, using parasite LDH activity as an index of growth.). Details: Plasmodium falciparum, 3D7.
Assay type: functional, organism-based

Compound	XC50
CCOc1cc(Cc2cnc(N)nc2N)cc(OCC)c1OCC	284 nM
Cc1cc(N/N=C/c2ccccc2[N+](=O)[O-])c2cc(F)ccc2n1	665 nM
Cc1ccc2nc(C)cc(N/N=C/c3ccc([N+](=O)[O-])o3)c2c1	751 nM
CCN(CC)CCN(Cc1ccc(-c2ccc(Br)cc2)cc1)C(=O)Cn1c(CCc2cccc(F)c2F)nc(=O)c2ccccc21	788 nM
Cc1ccccc1CNCC(O)c1cccc(C(F)(F)F)c1 (stereo unspecified)	881 nM
O=C(/C=C/c1ccc(Cl)c(Cl)c1)NCCCCCN1CCC(c2c[nH]c3ccc(O)cc23)CC1	886 nM
Cn1c(NC(=O)c2ccc(CNC(=O)c3ccc(O)c(-c4ccc(Cl)c(Cl)c4)c3)cc2)nc2ccccc21	842 nM
CC(=O)N/N=C/[C@H](CCc1ccccc1)NC(=O)[C@H](CC(C)C)NC(=O)c1cccc(OCCN2CCOCC2)c1	236 nM
COc1ccc2nc(N3CCN(C(=O)OC(C)(C)C)CC3)nc(NCCCc3ccccc3)c2c1	687 nM
Oc1ccc(CCNc2nc(NCc3ccccc3-c3ccc(C(F)(F)F)cc3)nc(N3CCCNCC3)n2)cc1	866 nM
CCc1cc(CNC2CCN(CCc3c(F)cnc4ccc(OC)nc34)CC2)cc2c1OCCO2	264 nM
CCN(CC)CCNc1ccnc2[nH]c3ccc([N+](=O)[O-])cc3c12	198 nM
CC[C@@H]([C@@H](Cc1cc2ccccc2s1)C(=O)N[C@@H](CCCCNC(=O)OCc1ccccc1)C(=O)Nc1ccccn1)N(O)C=O	227 nM
CN1CCc2cc(I)c(O)cc2C1Cc1ccccc1Cl (stereo unspecified)	788 nM
CCCCOP(=O)(COc1ccc(CCN(CC(O)COc2cccc3[nH]c4ccccc4c23)CC(O)COc2cccc3[nH]c4ccccc4c23)cc1)C1CCCCC1 (stereo unspecified)	939 nM
CC1(C)N=C(N)N=C(N)N1OCCc1ccc2ccccc2c1	3.2 nM
CC(Cc1ccc(C(C)(C)C)cc1)NCC(O)c1ccccc1 (stereo unspecified)	1810 nM
CN(CCO)Cc1cccc(-c2ccc(NC(=O)c3cccc(C#N)c3)cc2)c1	796 nM
COc1ccc(CC(C)NCC(O)c2cccc(C(F)(F)F)c2)cc1F (stereo unspecified)	827 nM
CC1CCC(NCc2ccc3c(CNC4CCC(C)CC4)c(O)ccc3c2O)CC1 (stereo unspecified)	116 nM
O=C(/C=C/c1ccc(Cl)c(Cl)c1)NC1CCC(CN2CCC(Cc3cc4ccccc4[nH]3)CC2)CC1 (stereo unspecified)	508 nM
CCC(=O)Nc1ccc(Nc2nc(C)cc(N3CCCC3)n2)cc1	1320 nM
O=C(c1cccc(-c2noc(C(F)(F)F)n2)c1)N1CCN(c2ccncc2)CC1	233 nM
Nc1nc(N)c2c3c(ccc2n1)NCCC3	734 nM

Compound	XC50
NC(=O)c1cccc(C(=O)Nc2cccc(-c3cccc(-c4nc5cc(C(F)(F)F)ccc5[nH]4)c3)c2)c1	126 nM
CN(/N=C/C=C/c1ccc(Cl)cc1)c1nc(NCCc2ccc(O)cc2)nc(N2CCNCC2)n1	873 nM
Cc1nc(-c2cccc(Nc3nccc(NCC(O)c4cccc(F)c4)n3)c2)cs1 (stereo unspecified)	699 nM
COc1ccccc1C1CCN(C2CCC(NC(=O)c3cc4cc(C(C)C)ccc4[nH]3)CC2)CC1 (stereo unspecified)	850 nM
Cc1ccc2nc3c(cc(C(=O)NCc4ccccc4)c(=N)n3CCCn3ccnc3)c(=O)n2c1	993 nM
COc1ccc(-c2nonc2NC(=O)c2ccc(C(C)(C)C)cc2)cc1OC	814 nM
COc1ccc(CNCc2cccc(-c3csc(-c4nc5ccccc5[nH]4)c3)c2)cc1	645 nM
Cn1c(=N)n(CC(=O)OCc2ccc(OCc3ccccc3)cc2)c2ccccc21	81.9 nM
NC(=O)COc1c(C2CCN(CCN3CCC(CNC(=O)c4ccc(-c5ccc(C(F)(F)F)cc5)cc4)CC3)CC2)ccc2c1CCCC2	969 nM
COc1ccc(C(=O)CCC(=O)N(Cc2ccc(-c3ccc(CNCCc4ccc(S(C)(=O)=O)cc4)cn3)cc2)C2CCN(Cc3ccccc3)CC2)cc1F	437 nM
COc1ccc(NS(=O)(=O)c2ccc(C(=O)Nc3ccc(OC(F)(F)F)cc3)cc2)cc1N1CCN(CC2CC2)CC1	1000 nM
CC(C)(C)c1nn(-c2ccc(Cl)cc2)c2[nH]c(=O)c(CNCc3cccs3)cc12	759 nM
CCCCc1cc(NCc2ccncc2)nc(Nc2ccccc2)n1	843 nM
COc1ccc(-c2cnc3ccc(NCc4ccc(S(N)(=O)=O)cc4)nn23)cc1	796 nM
CC1(CCCCN2CCC(Oc3ccc(F)cc3F)CC2)C(=O)Nc2ccccc21 (stereo unspecified)	761 nM
C=Cc1ccccc1C1(O)CCN(CCCCNC(=O)c2ccc(-c3ccc(C#N)cc3)cc2)CC1	518 nM
COc1ccccc1C(=O)Nc1ccc(Nc2nc(C)cc(N3CCOCC3)n2)cc1	528 nM
O=C(/C=C/c1c(Cl)cccc1Cl)NC1CCC(CN2C3CCC2CC(c2c[nH]c4ccccc24)C3)CC1 (stereo unspecified)	844 nM
Cc1ccc(O)c(C(=O)c2cnc3c(c2)c(-c2ccc(F)cc2)c(C#N)c(=O)n3C)c1	971 nM
COc1ccc2nc3cc(Cl)ccc3c(NCCN(C)C)c2c1	188 nM
Cc1ccc(Nc2nccc(NCC(O)c3cccc(C)c3)n2)cc1 (stereo unspecified)	1020 nM
CC(C)N1CCN(CCCNc2c3ccccc3nc3ccccc23)CC1	233 nM
CC(=O)Nc1ncc(C(=O)Nc2cccc(-c3ccc(-c4nc5ccccc5[nH]4)cc3)c2)s1	669 nM
CCN(CC)/C(=N/C(=N)NCc1cccc(Cl)c1)NCCCCCCN/C(=N\C(=N)NCc1cccc(Cl)c1)N(CC)CC	206 nM

Compound	XC50
O=C(Nc1ccc(Cn2ncc(N3CCCNCC3)c(Cl)c2=O)cc1)Nc1cccc(SC(F)(F)F)c1	675 nM
CNC(=O)c1cc(S(=O)(=O)N2CCN(c3ccccn3)CC2)c(C)s1	1160 nM
Cc1cccc2nc(-c3ccc(-c4cccc(NC(=O)Nc5ccc(Cl)c(Cl)c5)c4)s3)[nH]c12	594 nM
CC(CN1CCN(C)CC1)C(=O)Nc1ccc(-c2cccc(-c3nc4cc(F)ccc4[nH]3)c2)cc1 (stereo unspecified)	522 nM
COc1ccc(-c2ccc(CNCc3ccc(F)cc3)cc2)cc1S(=O)(=O)NCCN1CCCC1	731 nM
Nc1cccc(CNCc2cccc(-c3cccc(-c4nc5ccccc5[nH]4)c3)c2)c1	615 nM
CCNc1cc(C(=O)N[C@@H](Cc2ccccc2)[C@H](O)CNC(C)(C)Cc2ccccc2)cc(N2CCCC2=O)c1	262 nM
CC(=O)Nc1ccc(C(=O)Nc2cccc(-c3ccc(-c4nc5ccccc5[nH]4)cc3)c2)cn1	206 nM
COc1cc(F)c2ncc(Cl)c(CCN3CCC(NCc4cc5c(cn4)OCCO5)CC3)c2c1	481 nM
COc1cc2c(cc1OC)C(C(=O)c1ccccc1)=NCC2	1090 nM
O=C(Cc1c[nH]cn1)Nc1cccc(-c2cccc(-c3nc4cc(F)ccc4[nH]3)c2)c1	777 nM
Cc1cc(-c2ccc3occ(CCN)c3c2)cnc1N	877 nM
CN1CCN(c2ccc(Nc3nc(N)c4ccn(C5CCC5)c4n3)cc2)CC1	1220 nM
Cc1cc2ncn(-c3nccc(NCc4ccc(F)c(C)c4)n3)c2cc1C	990 nM
CCCC1CCNC(C(O)c2ccnc3ccc(OC)cc23)C1 (stereo unspecified)	426 nM
CN(C)CCC1CCCc2ccc(NC(=O)Nc3ccc(-c4ccncc4)c4ccccc34)cc21 (stereo unspecified)	1070 nM
COc1ccccc1N1CCN(c2cccc3c2nc(-c2cncc(C#N)c2)n3CCNCc2ccccc2)CC1	706 nM
C=CCOc1ccc(CNC2CCN(Cc3ccccc3)CC2)cc1Br	1420 nM
CCCCCCNC(=O)C1Cc2c([nH]c3ccc(Br)cc23)C2(CCN(Cc3ccccc3)CC2)N1 (stereo unspecified)	722 nM
Cc1cc(C2CCN(CCCCNC(=O)c3ccc(-c4ccc(C#N)cc4)cc3)CC2)c(C)cc1O	854 nM
CNC(=O)COc1ccc(Nc2nnc(-c3ccc(C)c(S(=O)(=O)NCC4CCCO4)c3)c3ccccc23)cc1 (stereo unspecified)	933 nM
CCOC(=O)c1ccc(NC(=O)N[C@H]2CCN(CCCCCNC(=O)/C=C/c3ccc(Cl)c(Cl)c3)C2)cc1	735 nM
COc1ccc2nccc([C@@H](O)CN3CCC(NCCNc4cccc(F)c4)CC3)c2c1	176 nM
CN1CCN(CCCN(Cc2csc(-c3ccc(CNCc4ccccc4)cc3)n2)S(=O)(=O)c2cccc3cccnc23)CC1	1410 nM

Compound	XC50
CC(=O)Oc1c(C2CCN(CCCCNC(=O)c3ccc(NC(=O)c4ccc(Cl)cc4)cc3)CC2)ccc2c1CCCC2	764 nM
COC(=O)c1ccc(CC(C)NCC(O)c2ccc(F)c(Cl)c2)cc1 (stereo unspecified)	863 nM
CC(=O)c1cccc(NC(=O)NC2CCN(CCCCCNC(=O)/C=C/c3ccc(Cl)c(Cl)c3)CC2)c1	835 nM
CN1CCN(CCCCNc2c3ccccc3nc3ccccc23)CC1	704 nM
CCOC(=O)c1c(CN2CCCC2)n(-c2ccccc2)c2cc(Br)c(O)cc12	1010 nM
CC[C@H](NC(=O)c1c(CN2CCC(N3CCCCC3)CC2)c(-c2ccccc2)nc2cc(O)ccc12)c1ccccc1	1370 nM
Cc1ccc(O)cc1C[C@@H]1C(=O)CC[C@@]2(C)[C@H]1CC[C@]2(C)O	957 nM
CN1CCN(c2ccc(-c3cccc(NC(=O)c4cccc([N+](=O)[O-])c4)c3)nn2)CC1	527 nM
CC(C)C[C@@H](C(=O)Nc1ccc(Cc2ccc(NC(=O)[C@H](CC(C)C)N(C)C(=O)OC(C)(C)C)cc2)cc1)N(C)C(=O)OC(C)(C)C	821 nM
Cc1cccc(Cl)c1S(=O)(=O)Nc1cccc(CCN2CCC(N3CCCCC3)CC2)c1	1110 nM
Cc1cc(-c2ccc(S(=O)(=O)Nc3cc4c(cc3OC(C)C)CCN(C)CC4)cc2)ccc1Cl	904 nM
Clc1ccc(Sc2cncnc2N2CCOCC2)cc1	40.2 nM
NC1=NC(c2ccccc2)(c2ccccn2)C(=O)N1CCCc1ccccc1 (stereo unspecified)	1040 nM
N=C(N)c1ccc(C=CC(=O)NCC(O)CNC(=O)C=Cc2ccc(C(=N)N)cc2)cc1 (stereo unspecified)	31.4 nM
COc1ccc(NC(=O)Nc2ccc(C)c(-c3ccc(C(=O)NCCN4CCCC4)cc3)c2)cc1	902 nM
c1ccc(CCNc2nc(NCC(c3ccccc3)c3ccccc3)c3nc[nH]c3n2)cc1	617 nM
Cc1c(CNCCCNc2nc3ccccc3[nH]2)sc(C(F)F)c1Br	293 nM
COc1cc2nc(NCCn3ccnc3C)nc(NCCc3ccccc3)c2cc1OC	727 nM
CNC(=O)c1cnc(Nc2ccc(OCC(O)CN(C)C)cc2)nc1Nc1cccc(Br)c1 (stereo unspecified)	121 nM
O=C(Nc1cccc(Cl)c1Cl)N1CCc2cc3nccc(N4CCN5CCC[C@H]5C4)c3cc21	1040 nM
O=S(=O)(NC1CCN(c2ccnc3cc(Cl)ccc23)C1)c1cccc(F)c1 (stereo unspecified)	486 nM
Cc1cccc(CCNC(=O)c2cc(Br)cc(N3CCN(c4ccncc4)CC3)c2)c1	874 nM
COc1ccccc1-c1sccc1C(=O)NC1(c2cc(Cl)cc(Cl)c2)CCCC1	938 nM
CCN(Cc1cccc2ccccc12)c1ccc2nc(N)nc(N)c2c1	3.2 nM
